In patent publication US20030087316A1, “Diagnostic markers of liver dysfunction” (priority 2001, published 2003):

Tests used:
[1] = tested on: complement (three known pathways); details: defined levels of Futhan in combination with EDTA; cited from earlier work
plasma kallikrein = biological target: T1, plasma kallikrein (Homo sapiens, UniProt P03952); experiment: Peptidase (amidolytic) activity of purified plasma kallikrein, chromogenic substrate, OD 405 nm; type: biochemical; details: Table 2; plasma kallikrein 20 nM, substrate AGLTR-pNA; 60 min at 4° C. with LBTI 1 mg/ml, SBTI I mg/ml, aprotinin 0.075 mg/ml, benzamidine 50 mM or Futhan 0.1 mg/ml; read-out: % Residual activity, Plasma Kallikrein
T1 construct: The light chain of kallikrein contains the enzymatic domain; purchased Calbiochem-Novabiochem Corp (La Jolla, Calif.)
T1 sequence (P03952 391-638 limits assumed): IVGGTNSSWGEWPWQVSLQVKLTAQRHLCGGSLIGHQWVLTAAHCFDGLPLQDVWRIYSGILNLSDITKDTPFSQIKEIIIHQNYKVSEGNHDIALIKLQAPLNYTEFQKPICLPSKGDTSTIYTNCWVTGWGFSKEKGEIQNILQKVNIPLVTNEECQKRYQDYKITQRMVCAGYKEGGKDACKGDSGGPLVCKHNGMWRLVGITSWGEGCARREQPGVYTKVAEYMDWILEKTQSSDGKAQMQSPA
T1 sequence (P03952 20-390 partner limits assumed): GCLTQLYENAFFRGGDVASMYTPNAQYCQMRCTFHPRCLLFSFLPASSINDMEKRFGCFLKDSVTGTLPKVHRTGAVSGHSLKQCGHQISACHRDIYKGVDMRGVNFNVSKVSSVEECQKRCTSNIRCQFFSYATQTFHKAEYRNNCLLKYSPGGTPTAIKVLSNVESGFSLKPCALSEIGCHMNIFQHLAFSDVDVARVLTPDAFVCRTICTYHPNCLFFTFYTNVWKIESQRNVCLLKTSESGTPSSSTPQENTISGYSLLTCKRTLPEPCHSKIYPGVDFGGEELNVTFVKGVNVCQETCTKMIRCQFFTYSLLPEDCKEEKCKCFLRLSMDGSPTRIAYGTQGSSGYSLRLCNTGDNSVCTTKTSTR
Procedure: (§1) The peptidase activity in plasma samples or of the purified enzymes were routinely determined at 37° C. in a 96-well plate. Each well contained 0.5 mM substrate in 100 μl of Tris-buffered saline (TBS)-EDTA buffer (50 mM Tris/150 mM NaCl/10 mM EDTA, pH 7.8) and the reaction was monitored using a microplate reader (Titertek Multiscan, Labsystems, Needham Heights, Mass.).
(§2) […] EDTA plasma samples from LTR were diluted 10 or 20-fold with TBS-EDTA. The chromogenic substrate AGLTR-pNA was used for all enzymes and LTR samples except C1s where the substrate S2288 was used. Based on the initial rate of increase in OD at 405 nm, the residual free enzyme level was calculated and expressed as a percentage of total activity without inhibitor added.
(§3) Ten-fold diluted normal EDTA plasma was added to each enzyme. […] LTR samples were 10 or 20-fold diluted with TBS-EDTA. The chromogenic substrate AGLTR-pNA was used for all enzymes and LTP samples except C1s where the substrate S2288 was used. Based on the initial rate of increase in OD at 405 nm, the residual free enzyme was calculated and expressed as a percentage of total activity determined without inhibitor added.

plasmin = biological target: T2, plasmin (Homo sapiens, UniProt P00747); experiment: Peptidase (amidolytic) activity of purified plasmin, chromogenic substrate, OD 405 nm; type: biochemical; details: Table 2; plasmin 100 nM, substrate AGLTR-pNA; 60 min at 4° C. with LBTI 1 mg/ml, SBTI I mg/ml, aprotinin 0.075 mg/ml, benzamidine 50 mM or Futhan 0.1 mg/ml; read-out: % Residual activity, Plasmin
T2 construct: purchased Calbiochem-Novabiochem Corp (La Jolla, Calif.)
T2 sequence (P00747 581-810 limits assumed, species assumed): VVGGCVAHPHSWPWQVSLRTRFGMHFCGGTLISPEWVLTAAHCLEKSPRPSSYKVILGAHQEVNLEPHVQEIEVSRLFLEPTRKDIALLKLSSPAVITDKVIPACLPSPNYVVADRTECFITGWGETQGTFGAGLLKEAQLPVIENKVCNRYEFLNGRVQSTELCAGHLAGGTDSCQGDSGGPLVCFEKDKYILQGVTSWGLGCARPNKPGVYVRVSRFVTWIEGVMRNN
T2 sequence (P00747 97-580 partner limits assumed, species assumed): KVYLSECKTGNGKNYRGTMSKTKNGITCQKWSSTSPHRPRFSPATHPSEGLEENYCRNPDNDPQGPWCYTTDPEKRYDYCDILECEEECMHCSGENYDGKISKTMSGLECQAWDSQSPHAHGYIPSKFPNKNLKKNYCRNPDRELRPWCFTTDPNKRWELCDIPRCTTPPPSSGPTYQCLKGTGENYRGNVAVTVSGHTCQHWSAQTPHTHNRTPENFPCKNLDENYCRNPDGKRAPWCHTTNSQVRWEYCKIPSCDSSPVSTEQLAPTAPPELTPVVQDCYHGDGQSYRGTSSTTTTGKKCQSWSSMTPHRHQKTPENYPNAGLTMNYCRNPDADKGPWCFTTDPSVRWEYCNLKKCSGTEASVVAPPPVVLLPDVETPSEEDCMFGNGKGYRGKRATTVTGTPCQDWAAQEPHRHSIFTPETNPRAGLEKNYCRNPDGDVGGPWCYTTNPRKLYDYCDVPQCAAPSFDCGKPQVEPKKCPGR
Procedure: as §1
(§4) The enzymes C1s (100 nM), plasm in (100 nM), thrombin (100 nM), plasma kallikrein (20 nM), β-FXIIa (100 nM), trypsin (16 nM) or LTR EDTA plasma samples were incubated for 60 min at 4° C. with TBS-EDTA buffer containing either LBTI (1 mg/ml), SBTI (I mg/ml), aprotinin (0.075 mg/ml), benzamidine (50 mM), or Futhan (0.1 mg/ml), before mixing with the substrate. EDTA plasma samples from LTR were diluted 10 or 20-fold with TBS-EDTA. The chromogenic substrate AGLTR-pNA was used for all enzymes and LTR samples except C1s where the substrate S2288 was used. Based on the initial rate of increase in OD at 405 nm, the residual free enzyme level was calculated and expressed as a percentage of total activity without inhibitor added.
(§5) Ten-fold diluted normal EDTA plasma was added to each enzyme. The enzymes C1s (100 nM), plasmin (100 nM), thrombin (100 nM), plasma kallikrein (20 nM), β-FXIIa (100 nM), trypsin (16 nM) or LTR EDTA plasma samples were incubated for 60 min at 4° C. with TBS-EDTA buffer containing either C1INH (40 μg/ml), bdellin (50 μg/ml), hirudin (50 U/ml), PPACK 11(10 μM), or CTI (100 μg/ml), before adding the substrate. LTR samples were 10 or 20-fold diluted with TBS-EDTA. The chromogenic substrate AGLTR-pNA was used for all enzymes and LTP samples except C1s where the substrate S2288 was used. Based on the initial rate of increase in OD at 405 nm, the residual free enzyme was calculated and expressed as a percentage of total activity determined without inhibitor added.

[2] = tested on: all of the enzymes examined; experiment: General serine proteinase inhibitors on selected proteinases (summary over the enzymes); type: biochemical; details: Table 2; benzamidine 50 mM, Futhan 0.1 mg/ml
Procedure: as §1, §4

β-Factor XIIa (β-FXIIa) = biological target: T3, β-Factor XIIa (β-FXIIa) (Homo sapiens, UniProt P00748); experiment: Peptidase (amidolytic) activity of purified β-FXIIa, chromogenic substrate, OD 405 nm; type: biochemical; details: Table 2; β-FXIIa 100 nM, substrate AGLTR-pNA; 60 min at 4° C. with LBTI 1 mg/ml, SBTI I mg/ml, aprotinin 0.075 mg/ml, benzamidine 50 mM or Futhan 0.1 mg/ml; read-out: % Residual activity, β-FXIIa
T3 construct: β-Factor XIIa (β-FXIIa) was kindly provided by Dr. Mary J. Heeb; gift of Dr. Mary J. Heeb, The Scripps Research Institute
T3 sequence (P00748 373-615 limits assumed, other chains not shown): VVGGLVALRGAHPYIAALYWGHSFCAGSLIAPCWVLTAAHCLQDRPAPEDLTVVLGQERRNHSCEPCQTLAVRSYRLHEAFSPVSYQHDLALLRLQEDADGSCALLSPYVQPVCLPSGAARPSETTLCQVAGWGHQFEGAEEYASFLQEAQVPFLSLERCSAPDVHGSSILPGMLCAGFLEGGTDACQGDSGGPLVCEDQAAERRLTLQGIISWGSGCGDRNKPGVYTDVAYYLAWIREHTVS
Procedure: as §1, §2, §3

trypsin = experiment: Peptidase (amidolytic) activity of purified trypsin, chromogenic substrate, OD 405 nm; type: biochemical; details: Table 2; trypsin 16 nM, substrate AGLTR-pNA; 60 min at 4° C. with LBTI 1 mg/ml, SBTI I mg/ml, aprotinin 0.075 mg/ml, benzamidine 50 mM or Futhan 0.1 mg/ml
Procedure: as §1, §4

thrombin = biological target: T4, thrombin (Homo sapiens, UniProt P00734); experiment: Peptidase (amidolytic) activity of purified thrombin, chromogenic substrate, OD 405 nm; type: biochemical; details: Table 2; thrombin 100 nM, substrate AGLTR-pNA; 60 min at 4° C. with LBTI 1 mg/ml, SBTI I mg/ml, aprotinin 0.075 mg/ml, benzamidine 50 mM or Futhan 0.1 mg/ml; read-out: % Residual activity, Thrombin
T4 construct: purchased Calbiochem-Novabiochem Corp (La Jolla, Calif.)

[3] = tested on: proteinase(s) in EDTA plasma from LTR (kallikrein-like peptidase); experiment: Peptidase activity in EDTA plasma from liver transplant recipients (LTR), chromogenic substrate, OD 405 nm; type: biochemical, human; details: Table 2, substrate AGLTR-pNA, 60 min at 4° C. with LBTI 1 mg/ml, SBTI I mg/ml, aprotinin 0.075 mg/ml, benzamidine 50 mM or Futhan 0.1 mg/ml
Procedure: Blood samples were drawn into 5 ml EDTA tubes (Venoject; Terumo Corp., Elkton, Md.). The plasma was collected immediately by centrifugation at 2,000×g for 15 min at 4° C. The plasma samples were either processed immediately for analysis or stored at −70° C. Frozen samples were thawed at 4° C. prior to analysis.
as §1, §4, §5

C1s = biological target: T5, C1s (Homo sapiens, UniProt P09871); experiment: Peptidase (amidolytic) activity of purified C1s, chromogenic substrate, 96-well plate, OD 405 nm; type: biochemical; details: Table 2; C1s 100 nM, substrate S2288; 60 min at 4° C. with LBTI 1 mg/ml, SBTI I mg/ml, aprotinin 0.075 mg/ml, benzamidine 50 mM or Futhan 0.1 mg/ml; % of total activity without inhibitor; read-out: % Residual activity, C1s
T5 construct: purchased Advanced Research Technologies (San Diego, Calif.)
T5 sequence (P09871 438-688 limits assumed): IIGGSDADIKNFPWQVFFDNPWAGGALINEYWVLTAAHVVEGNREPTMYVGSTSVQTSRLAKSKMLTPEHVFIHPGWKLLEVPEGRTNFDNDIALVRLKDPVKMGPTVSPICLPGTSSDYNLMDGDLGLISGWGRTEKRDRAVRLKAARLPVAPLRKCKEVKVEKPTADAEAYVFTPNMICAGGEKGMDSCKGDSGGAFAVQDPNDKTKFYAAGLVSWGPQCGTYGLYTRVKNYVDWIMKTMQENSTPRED
T5 sequence (P09871 16-437 partner limits assumed): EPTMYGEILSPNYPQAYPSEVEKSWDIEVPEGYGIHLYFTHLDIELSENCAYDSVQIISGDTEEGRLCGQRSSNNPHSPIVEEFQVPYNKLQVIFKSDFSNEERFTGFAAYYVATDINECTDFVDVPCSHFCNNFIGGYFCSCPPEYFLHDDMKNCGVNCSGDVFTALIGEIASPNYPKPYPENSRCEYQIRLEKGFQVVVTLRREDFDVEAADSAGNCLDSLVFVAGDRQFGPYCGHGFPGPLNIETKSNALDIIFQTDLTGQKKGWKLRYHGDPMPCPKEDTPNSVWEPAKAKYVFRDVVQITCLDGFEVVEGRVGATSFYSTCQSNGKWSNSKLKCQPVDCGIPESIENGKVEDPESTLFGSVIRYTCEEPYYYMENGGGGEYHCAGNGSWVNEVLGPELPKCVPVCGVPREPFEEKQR
Procedure: as §1, §4, §5

N=C(N)c1ccc2cc(OC(=O)c3ccc(N=C(N)N)cc3)ccc2c1 [Futhan, nafamostat mesilate]
Prevention of in vitro activation of complement in plasma samples, in words [1]: can prevent the in vitro activation of complement by any of the three known pathways | remaining activity at 100 µg/mL (plasma kallikrein): 1.1% | remaining activity at 100 µg/mL (plasmin): -1.5% | Inhibition of all of the enzymes examined, in words [2]: very efficient inhibitors for all of the enzymes examined | remaining activity at 100 µg/mL (β-Factor XIIa (β-FXIIa)): 3.8% | % Residual activity, Trypsin (trypsin): −0.5% | remaining activity at 100 µg/mL (thrombin): 0.8% | % Residual activity, LTR 1 ([3]; LTR 1 EDTA plasma diluted 10 or 20-fold): −0.7% | % Residual activity, LTR 2 ([3]; LTR 2 EDTA plasma diluted 10 or 20-fold): 0.2% | % Residual activity, LTR 3 ([3]; LTR 3 EDTA plasma diluted 10 or 20-fold): −1.1% | remaining activity at 100 µg/mL (C1s): 4.6%
